Read-outs that look alike come from different tables or passages of the source.
What was measured:
D2S (h) = D2S (h) (Homo sapiens, UniProt P14416); assay type: binding; parameters: host or cells: HEK-293 cells; settings: 1.0E-06 M
acetylcholinesterase (h) = biological target: T1, acetylcholinesterase (h) (Homo sapiens, UniProt P22303); assay: enzyme assay; assay type: biochemical; settings: 1.0E-06 M
T1 construct: host or cells: HEK-293 cells

5-HT3 (h) = biological target: T2, 5-HT3 (h) (Homo sapiens, UniProt P46098); assay: biochemical
T2 sequence (P46098 24-478): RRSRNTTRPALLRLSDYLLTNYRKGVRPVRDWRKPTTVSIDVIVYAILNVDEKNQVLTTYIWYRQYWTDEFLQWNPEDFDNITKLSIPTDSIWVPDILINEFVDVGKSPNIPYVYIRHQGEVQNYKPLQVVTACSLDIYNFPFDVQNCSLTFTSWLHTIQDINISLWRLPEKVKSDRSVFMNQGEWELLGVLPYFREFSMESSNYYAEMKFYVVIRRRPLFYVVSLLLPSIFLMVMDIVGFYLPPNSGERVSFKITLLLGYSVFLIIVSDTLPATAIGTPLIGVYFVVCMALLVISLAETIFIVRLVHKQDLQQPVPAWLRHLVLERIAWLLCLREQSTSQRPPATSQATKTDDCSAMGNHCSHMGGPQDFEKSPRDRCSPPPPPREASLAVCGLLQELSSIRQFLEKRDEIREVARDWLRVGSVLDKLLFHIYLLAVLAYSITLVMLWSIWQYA

H1 (h) = biological target: T3, H1 (h) (Homo sapiens, UniProt P35367); assay type: binding; settings: 1.0E-06 M
T3 construct: host or cells: HEK-293 cells
T3 sequence (P35367 whole entry): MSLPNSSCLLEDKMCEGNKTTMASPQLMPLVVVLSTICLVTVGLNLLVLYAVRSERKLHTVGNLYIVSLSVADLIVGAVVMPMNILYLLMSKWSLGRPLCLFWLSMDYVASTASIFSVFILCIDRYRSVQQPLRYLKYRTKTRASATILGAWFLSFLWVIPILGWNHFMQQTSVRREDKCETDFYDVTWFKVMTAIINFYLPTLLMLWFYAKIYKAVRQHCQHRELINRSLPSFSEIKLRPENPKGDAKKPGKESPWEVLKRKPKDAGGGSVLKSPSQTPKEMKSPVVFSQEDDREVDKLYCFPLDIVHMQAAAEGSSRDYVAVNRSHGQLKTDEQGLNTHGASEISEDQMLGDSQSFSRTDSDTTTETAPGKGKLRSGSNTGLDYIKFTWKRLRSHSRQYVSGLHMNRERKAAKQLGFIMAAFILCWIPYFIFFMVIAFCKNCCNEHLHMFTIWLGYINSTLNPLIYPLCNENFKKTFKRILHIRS

α2B (h) = biological target: T4, α2B (h) (Homo sapiens, UniProt P18089); assay: biochemical; assay type: binding; settings: 1.0E-06 M
T4 construct: host or cells: CHO cells
T4 sequence (P18089 1-450): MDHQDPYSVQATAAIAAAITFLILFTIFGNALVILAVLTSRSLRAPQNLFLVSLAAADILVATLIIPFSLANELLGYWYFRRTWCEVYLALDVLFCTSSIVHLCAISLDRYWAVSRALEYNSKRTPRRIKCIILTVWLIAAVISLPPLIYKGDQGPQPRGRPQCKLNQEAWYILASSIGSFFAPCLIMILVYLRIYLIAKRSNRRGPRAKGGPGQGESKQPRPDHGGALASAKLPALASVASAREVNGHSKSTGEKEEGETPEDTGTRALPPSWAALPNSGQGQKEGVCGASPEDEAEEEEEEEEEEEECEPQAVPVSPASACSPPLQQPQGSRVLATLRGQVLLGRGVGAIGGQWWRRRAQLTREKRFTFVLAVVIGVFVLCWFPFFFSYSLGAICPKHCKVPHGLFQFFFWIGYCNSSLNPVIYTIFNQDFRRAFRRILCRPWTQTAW

MT3 (ML2) = biological target: T5, MT3 (ML2) (Mesocricetus auratus, UniProt A0ABM2YAB8); assay type: binding, hamster
T5 construct: tissue Cerep; host or cells: hamster brain
T5 sequence (A0ABM2YAB8 1-231): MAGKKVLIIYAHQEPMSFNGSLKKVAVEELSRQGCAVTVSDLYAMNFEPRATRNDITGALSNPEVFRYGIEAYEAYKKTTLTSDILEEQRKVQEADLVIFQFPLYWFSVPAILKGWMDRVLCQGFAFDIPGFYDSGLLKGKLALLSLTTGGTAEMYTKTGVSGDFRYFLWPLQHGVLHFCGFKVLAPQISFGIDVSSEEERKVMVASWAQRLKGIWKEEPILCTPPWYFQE

Nav1.5 = biological target: T6, Nav1.5 (Homo sapiens, UniProt Q14524); assay: Ion channel selectivity patch clamp; assay type: cell-based
T6 construct: The cDNAs for various full-length ion channels were subcloned into pcDNA5/TO; expressed in transfected cells

CB1 (h) = biological target: T7, CB1 (h) (Homo sapiens, UniProt P21554); assay type: binding; settings: 1.0E-06 M
T7 construct: host or cells: CHO cells
T7 sequence (P21554 whole entry): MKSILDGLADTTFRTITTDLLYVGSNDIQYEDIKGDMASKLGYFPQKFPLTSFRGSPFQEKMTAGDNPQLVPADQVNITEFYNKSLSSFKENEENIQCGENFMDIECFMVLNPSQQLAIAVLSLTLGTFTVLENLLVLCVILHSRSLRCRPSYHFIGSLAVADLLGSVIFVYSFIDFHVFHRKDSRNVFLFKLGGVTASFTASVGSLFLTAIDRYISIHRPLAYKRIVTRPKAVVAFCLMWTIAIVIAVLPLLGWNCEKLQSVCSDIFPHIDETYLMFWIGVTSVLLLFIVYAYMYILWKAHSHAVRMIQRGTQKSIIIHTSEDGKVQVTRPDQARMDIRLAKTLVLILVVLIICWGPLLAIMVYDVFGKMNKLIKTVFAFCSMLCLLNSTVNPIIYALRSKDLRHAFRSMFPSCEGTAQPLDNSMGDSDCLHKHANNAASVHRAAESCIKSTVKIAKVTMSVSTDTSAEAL

D4.4 (h) = biological target: T8, D4.4 (h) (Homo sapiens, UniProt P21917); assay: biochemical; assay type: binding; settings: 1.0E-06 M
T8 sequence (P21917 1-419): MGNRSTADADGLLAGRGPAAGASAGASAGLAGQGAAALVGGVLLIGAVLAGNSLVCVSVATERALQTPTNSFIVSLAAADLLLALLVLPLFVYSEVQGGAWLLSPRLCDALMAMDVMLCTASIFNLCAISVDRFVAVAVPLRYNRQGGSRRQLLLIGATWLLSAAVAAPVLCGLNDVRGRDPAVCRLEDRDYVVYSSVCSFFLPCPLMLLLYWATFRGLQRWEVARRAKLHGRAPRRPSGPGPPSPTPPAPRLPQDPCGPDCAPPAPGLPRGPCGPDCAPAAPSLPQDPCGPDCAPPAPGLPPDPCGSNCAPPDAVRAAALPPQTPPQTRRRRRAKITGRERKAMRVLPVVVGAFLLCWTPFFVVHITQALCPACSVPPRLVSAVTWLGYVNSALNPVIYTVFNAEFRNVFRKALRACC

GABAA1 (h) (α1,β2,γ2) = biological target: T9, GABAA1 (h) (α1,β2,γ2) (Homo sapiens, UniProt P14867+P47870); assay type: binding; settings: 1.0E-06 M
T9 construct: host or cells: CHO cells
T9 sequence (P14867 28-456): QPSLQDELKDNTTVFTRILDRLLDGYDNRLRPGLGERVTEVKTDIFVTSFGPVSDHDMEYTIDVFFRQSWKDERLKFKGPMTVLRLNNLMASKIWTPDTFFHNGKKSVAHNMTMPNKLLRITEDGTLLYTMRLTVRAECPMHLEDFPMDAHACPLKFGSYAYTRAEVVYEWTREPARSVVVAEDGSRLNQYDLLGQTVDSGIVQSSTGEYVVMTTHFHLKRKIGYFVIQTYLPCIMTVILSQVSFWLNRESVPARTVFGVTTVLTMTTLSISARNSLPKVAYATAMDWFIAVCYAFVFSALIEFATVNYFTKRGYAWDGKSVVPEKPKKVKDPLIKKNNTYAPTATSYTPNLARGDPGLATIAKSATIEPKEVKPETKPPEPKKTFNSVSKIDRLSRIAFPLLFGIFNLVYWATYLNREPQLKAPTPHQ
T9 sequence (P47870 25-512 limits assumed): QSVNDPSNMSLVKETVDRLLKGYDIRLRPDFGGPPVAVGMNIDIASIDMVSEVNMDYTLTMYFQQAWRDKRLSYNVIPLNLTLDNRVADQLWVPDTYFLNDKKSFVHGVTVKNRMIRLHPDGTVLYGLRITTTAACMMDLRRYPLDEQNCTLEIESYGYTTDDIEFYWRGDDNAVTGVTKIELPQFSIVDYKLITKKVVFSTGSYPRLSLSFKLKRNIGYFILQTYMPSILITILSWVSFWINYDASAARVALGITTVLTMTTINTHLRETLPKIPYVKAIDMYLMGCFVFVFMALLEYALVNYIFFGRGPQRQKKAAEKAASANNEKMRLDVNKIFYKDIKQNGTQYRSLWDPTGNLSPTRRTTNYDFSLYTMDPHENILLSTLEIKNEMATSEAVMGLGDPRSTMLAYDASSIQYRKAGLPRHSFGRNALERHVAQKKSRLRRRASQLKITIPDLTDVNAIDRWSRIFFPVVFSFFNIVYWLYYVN
T9 sequence (P18507 40-475 partner): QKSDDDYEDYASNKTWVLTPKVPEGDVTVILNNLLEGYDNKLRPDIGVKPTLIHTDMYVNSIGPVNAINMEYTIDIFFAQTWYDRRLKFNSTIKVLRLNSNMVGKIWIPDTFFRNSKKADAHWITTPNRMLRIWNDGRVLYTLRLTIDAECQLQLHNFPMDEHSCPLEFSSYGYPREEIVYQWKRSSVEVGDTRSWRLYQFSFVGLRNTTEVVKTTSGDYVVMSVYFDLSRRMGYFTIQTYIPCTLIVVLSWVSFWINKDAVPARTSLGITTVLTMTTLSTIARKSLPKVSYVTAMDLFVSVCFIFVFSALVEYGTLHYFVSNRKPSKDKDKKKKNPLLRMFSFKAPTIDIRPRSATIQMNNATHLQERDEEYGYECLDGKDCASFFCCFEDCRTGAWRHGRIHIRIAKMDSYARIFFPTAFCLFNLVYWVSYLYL

T1 sequence (P22303 32-614): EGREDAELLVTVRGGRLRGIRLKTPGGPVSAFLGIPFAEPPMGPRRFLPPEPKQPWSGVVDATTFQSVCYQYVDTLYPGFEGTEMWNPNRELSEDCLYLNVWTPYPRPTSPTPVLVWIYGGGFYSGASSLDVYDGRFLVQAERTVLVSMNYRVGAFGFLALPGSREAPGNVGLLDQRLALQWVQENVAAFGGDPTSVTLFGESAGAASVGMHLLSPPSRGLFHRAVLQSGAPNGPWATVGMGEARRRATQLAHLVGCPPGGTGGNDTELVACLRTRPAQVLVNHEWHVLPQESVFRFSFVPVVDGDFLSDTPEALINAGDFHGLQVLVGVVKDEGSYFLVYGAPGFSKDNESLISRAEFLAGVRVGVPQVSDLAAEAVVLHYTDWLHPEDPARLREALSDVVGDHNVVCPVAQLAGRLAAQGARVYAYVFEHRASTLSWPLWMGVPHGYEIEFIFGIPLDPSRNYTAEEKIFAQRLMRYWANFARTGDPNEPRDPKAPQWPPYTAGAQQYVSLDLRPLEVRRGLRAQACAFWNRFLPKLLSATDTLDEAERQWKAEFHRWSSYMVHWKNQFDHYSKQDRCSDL
D2S (h), sequence (P14416 1-414 isoform P14416-2): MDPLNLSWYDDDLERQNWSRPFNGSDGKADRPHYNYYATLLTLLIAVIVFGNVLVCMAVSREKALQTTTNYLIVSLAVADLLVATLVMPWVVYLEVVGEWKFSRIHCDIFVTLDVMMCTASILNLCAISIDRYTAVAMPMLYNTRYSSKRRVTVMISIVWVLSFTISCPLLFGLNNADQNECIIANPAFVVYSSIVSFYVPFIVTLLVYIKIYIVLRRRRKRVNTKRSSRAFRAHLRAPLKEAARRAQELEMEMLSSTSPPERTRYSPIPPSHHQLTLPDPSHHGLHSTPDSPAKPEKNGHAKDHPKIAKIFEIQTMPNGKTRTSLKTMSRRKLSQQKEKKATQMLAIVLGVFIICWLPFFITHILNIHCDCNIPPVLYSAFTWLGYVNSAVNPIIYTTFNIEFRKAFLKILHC

SMILES | inhibition at 1 µM (D2S (h); read-out: % Inhibition 1st) [%] | inhibition at 1 µM (D2S (h); read-out: % Inhibition 2nd) [%] | inhibition at 1 µM (D2S (h); read-out: % Inhibition Mean) [%] | inhibition at 1 µM (acetylcholinesterase (h); read-out: % Inhibition 1st) [%] | inhibition at 1 µM (acetylcholinesterase (h); read-out: % Inhibition 2nd) [%] | inhibition at 1 µM (acetylcholinesterase (h); read-out: % Inhibition Mean) [%] | inhibition at 1 µM (5-HT3 (h); read-out: % Inhibition 1st) [%] | inhibition at 1 µM (5-HT3 (h); read-out: % Inhibition 2nd) [%] | inhibition at 1 µM (5-HT3 (h); read-out: % Inhibition Mean) [%] | inhibition at 1 µM (H1 (h); read-out: % Inhibition 1st) [%] | inhibition at 1 µM (H1 (h); read-out: % Inhibition 2nd) [%] | inhibition at 1 µM (H1 (h); read-out: % Inhibition Mean) [%] | inhibition at 1 µM (α2B (h); read-out: % Inhibition 1st) [%] | inhibition at 1 µM (α2B (h); read-out: % Inhibition 2nd) [%] | inhibition at 1 µM (α2B (h); read-out: % Inhibition Mean) [%] | inhibition at 1 µM (MT3 (ML2); read-out: % Inhibition 1st) [%] | inhibition at 1 µM (MT3 (ML2); read-out: % Inhibition 2nd) [%] | inhibition at 1 µM (MT3 (ML2); read-out: % Inhibition Mean) [%] | IC50 (Nav1.5) [nM] | inhibition at 1 µM (CB1 (h); read-out: % Inhibition 1st) [%] | further results
Cn1c(=O)n(CCCO)c(=O)c2c1nc(Oc1cccc(Cl)c1)n2Cc1ccc(Cl)cc1 [HC-070] | -3 | 3.4 | 0.2 | 2.1 | -0.7 | 0.7 | 4.7 | 2.6 | 3.7 | -15.6 | -11.4 | -13.5 | -22.3 | -1.2 | -11.7 | 46.1 | 49.5 | 47.8 | > 1900 | 8.4 | inhibition at 1 µM (CB1 (h); read-out: % Inhibition 2nd): 18.8%; inhibition at 1 µM (CB1 (h); read-out: % Inhibition Mean): 13.6%; inhibition at 1 µM (D4.4 (h); read-out: % Inhibition 1st): -15.8%; inhibition at 1 µM (D4.4 (h); read-out: % Inhibition 2nd): -1.8%; inhibition at 1 µM (D4.4 (h); read-out: % Inhibition Mean): -8.8%; inhibition at 1 µM (GABAA1 (h) (α1,β2,γ2); read-out: % Inhibition 1st): 27.9%; inhibition at 1 µM (GABAA1 (h) (α1,β2,γ2); read-out: % Inhibition 2nd): 16.4%; inhibition at 1 µM (GABAA1 (h) (α1,β2,γ2); read-out: % Inhibition Mean): 22.1%
Cn1c(=O)n(CCCO)c(=O)c2c1nc(Oc1cccc(OC(F)(F)F)c1)n2Cc1ccc(Cl)cc1 [HC-608] | 4.6 | 0.2 | 2.4 | -5.9 | -3.5 | -4.7 | -4.1 | 9.5 | 2.7 | -8.1 | -0.9 | -4.5 | -7.4 | -0.7 | -4 | -0.7 | 1.2 | 0.2 | > 1640 | 27 | inhibition at 1 µM (CB1 (h); read-out: % Inhibition 2nd): 25.5%; inhibition at 1 µM (CB1 (h); read-out: % Inhibition Mean): 26.2%; inhibition at 1 µM (D4.4 (h); read-out: % Inhibition 1st): -20.4%; inhibition at 1 µM (D4.4 (h); read-out: % Inhibition 2nd): 3.4%; inhibition at 1 µM (D4.4 (h); read-out: % Inhibition Mean): -8.5%; inhibition at 1 µM (GABAA1 (h) (α1,β2,γ2); read-out: % Inhibition 1st): 0.6%; inhibition at 1 µM (GABAA1 (h) (α1,β2,γ2); read-out: % Inhibition 2nd): 7.9%; inhibition at 1 µM (GABAA1 (h) (α1,β2,γ2); read-out: % Inhibition Mean): 4.2%

Reference: article PMC5791972 (PLoS ONE, 2018)
